The results in this text go back to the supplement of paper PMC11061612.

Assay in all cases: Bliss excess, mean over the matrix (fraction); higher = more synergy
Experiment [1] relates to NCI-H2087 (Lung Adenocarcinoma). In short, it runs like this:
(§1)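 Cell lines in DMEM/F12 or RPMI with 10% FBS were plated in 1536-well plates, held 24 hours at 37°C, 5% CO2, then given two-drug dose matrices for 72 hours (DMSO typically 0.2%). Viability was read by CellTiter-Glo 2.0 luminescence and scaled as inhibition from 0 (vehicle wells) to 1 (blank wells). Combination Emax is the second-highest inhibition in the matrix; Bliss excess is observed combination effect minus expected EA + EB − EA·EB, EA and EB being single-agent effects.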

Experiment [2] deals with HCC1395 (Breast Carcinoma). The method, boiled down:
as §1

In experiment [3] the test system is SK-HEP-1 (Hepatocellular Carcinoma). The method, boiled down: as §1
In experiment [4] the test system is 22RV1 (Prostate Carcinoma). In short, it runs like this:
as §1

The subject of experiment [5] is SW620 (Colorectal Carcinoma). The method, boiled down: as §1
Experiment [6] has as its system JHU-022 (Oral Cavity Carcinoma). The method, boiled down: as §1
Experiment [7] relates to CGTH-W-1 (Thyroid Gland Carcinoma). The method, boiled down:
as §1

The subject of a further experiment is PEO1 (Ovarian Carcinoma). In short, it runs like this: as §1

Regarding `C=CCn1c(=O)c2cnc(Nc3ccc(N4CCN(C)CC4)cc3)nc2n1-c1cccc(C(C)(C)O)n1` [AZD1775] + Nc1ccn([C@@H]2O[C@H](CO)[C@@H](O)C2(F)F)c(=O)n1 [Gemcitabine] (first compound max 1 µM, partner max 0.3 µM), the Bliss excess was 0.0247 in experiment [1]; 0.0294 in experiment [2]; -0.029 in experiment [3]; -0.0225 in experiment [4]; 0.0165 in experiment [5]; 0.0276 in experiment [6]. Further, the Bliss excess in experiment [7] is 0.0167; in the experiment with PEO1 (Ovarian Carcinoma) it was 0.0712.
For the compound `Cc1c2c(nn1C)CSCc1cc(n(C)n1)CSc1cc(c3ccccc3c1)OCCCc1c(C(=O)O)n(C)c3c-2c(Cl)ccc13` [AZD5991] + CC(=O)O[C@H]1C(=O)[C@@]2(C)[C@H]([C@H](OC(=O)c3ccccc3)[C@]3(O)C[C@H](OC(=O)[C@H](O)[C@@H](NC(=O)c4ccccc4)c4ccccc4)C(C)=C1C3(C)C)[C@]1(OC(C)=O)CO[C@@H]1C[C@@H]2O [Paclitaxel] (first compound max 1 µM, 7x7, partner max 3 µM), the Bliss excess is 0.0128 in experiment [1]; 0.0501 in experiment [2]; -0.0587 in experiment [3]; 0.0731 in experiment [4]; 0.0435 in experiment [5]; 0.0286 in experiment [6]. The values for the Bliss excess (in experiment [7]; in the experiment with PEO1 (Ovarian Carcinoma)) were 0.037 and -0.0624, respectively.
As for `Cc1c2c(nn1C)CSCc1cc(n(C)n1)CSc1cc(c3ccccc3c1)OCCCc1c(C(=O)O)n(C)c3c-2c(Cl)ccc13` [AZD5991] + Nc1ccn([C@@H]2O[C@H](CO)[C@@H](O)C2(F)F)c(=O)n1 [Gemcitabine] (first compound max 1 µM, 7x7, partner max 0.3 µM), the Bliss excess in experiment [1] is -0.0307; in experiment [2], -0.0262; in experiment [3] it was -0.109; in experiment [4], -0.02; in experiment [5], -0.0217; in experiment [6], -0.0307. The Bliss excess in experiment [7] is -0.0235; in the experiment with PEO1 (Ovarian Carcinoma) it was -0.0523.
For the compound `C[C@@H]1COCCN1c1cc(C2([S@](C)(=N)=O)CC2)nc(-c2ccnc3[nH]ccc23)n1` [AZD6738] + Nc1ccn([C@@H]2O[C@H](CO)[C@@H](O)C2(F)F)c(=O)n1 [Gemcitabine] (first compound max 10 µM, 7x7, partner max 0.3 µM), the Bliss excess in experiment [1] is 0.0743; in experiment [2], 0.0334; in experiment [3], 0.0557; in experiment [4], -0.0011; in experiment [5], 0.0454; in experiment [6], 0.0407. Besides, the Bliss excess is 0.106 in experiment [7] and 0.0764 in the experiment on PEO1 (Ovarian Carcinoma).
Take `C[C@@H](Nc1cc(F)cc(F)c1)c1cc(C(=O)N(C)C)cc2c(=O)cc(N3CCOCC3)oc12` [AZD8186] + C1CN(CCC1(C(=O)N[C@@H](CCO)C2=CC=C(C=C2)Cl)N)C3=NC=NC4=C3C=CN4 [AZD5363] (first compound max 10 µM, 7x7, partner max 10 µM): the Bliss excess is -0.0043 in experiment [1]; 0.0007 in experiment [2]; -0.0291 in experiment [3]; -0.0401 in experiment [4]; -0.0135 in experiment [5]; -0.0909 in experiment [6]. Besides, the values for the Bliss excess (in experiment [7]; in the experiment on PEO1 (Ovarian Carcinoma)) were -0.0136 and -0.0405, respectively.
Turning to `C[C@@H](Nc1cc(F)cc(F)c1)c1cc(C(=O)N(C)C)cc2c(=O)cc(N3CCOCC3)oc12` [AZD8186] + CC(=O)c1c(C)c2cnc(Nc3ccc(N4CCNCC4)cn3)nc2n(C2CCCC2)c1=O [Palbociclib] (first compound max 10 µM, 7x7, partner max 10 µM), the Bliss excess in experiment [1] was -0.0232; in experiment [2], 0.063; in experiment [3], -0.0155; in experiment [4] it was -0.0421; in experiment [5] it was 0.0238; in experiment [6], -0.0376. The Bliss excess in experiment [7] is 0.0397; in the experiment with PEO1 (Ovarian Carcinoma), -0.026.
Regarding `O=C(c1cc(Cc2n[nH]c(=O)c3ccccc23)ccc1F)N1CCN(C(=O)C2CC2)CC1` [Olaparib] + CC1(C)CCC(CN2CCN(c3ccc(C(=O)NS(=O)(=O)c4ccc(NCC5CCOCC5)c([N+](=O)[O-])c4)c(Oc4cnc5[nH]ccc5c4)c3)CC2)=C(c2ccc(Cl)cc2)C1 [Venetoclax] (first compound max 10 µM, 7x7, partner max 1 µM), the Bliss excess in experiment [1] was -0.0543; in experiment [2], -0.0396; in experiment [3], -0.0619; in experiment [4], -0.0622; in experiment [5], -0.0533; in experiment [6] it was -0.0455. In addition, the Bliss excess in experiment [7] is -0.0433; in the experiment on PEO1 (Ovarian Carcinoma), -0.0786.
Regarding `O=C(c1cc(Cc2n[nH]c(=O)c3ccccc23)ccc1F)N1CCN(C(=O)C2CC2)CC1` [Olaparib] + CN(CC[C@H](CSC1=CC=CC=C1)NC2=C(C=C(C=C2)S(=O)(=O)NC(=O)C3=CC=C(C=C3)N4CCC(CC4)[C@H](C5=CC=CC=C5C6=CC=C(C=C6)Cl)O)S(=O)(=O)C(F)(F)F)CCO [AZD4320] (first compound max 10 µM, 7x7, partner max 1 µM), the Bliss excess was -0.0215 in experiment [1]; -0.0335 in experiment [2]; 0.0491 in experiment [3]; -0.0864 in experiment [4]; -0.0535 in experiment [5]; -0.0411 in experiment [6]. Also, the results for the Bliss excess (in experiment [7]; with PEO1 (Ovarian Carcinoma)) were -0.0482 and -0.083, respectively.
As for `O=C(c1cc(Cc2n[nH]c(=O)c3ccccc23)ccc1F)N1CCN(C(=O)C2CC2)CC1` [Olaparib] + COc1nnc2ccc(N3CCC(c4ccc(OCCN5CCN(C)C(=O)[C@H]5C)cc4)CC3)nn12 [AZD5153] (first compound max 10 µM, 7x7, partner max 1 µM), the Bliss excess is -0.0304 in experiment [1]; -0.0658 in experiment [2]; 0.0116 in experiment [3]; -0.0312 in experiment [4]; -0.0506 in experiment [5]; -0.0676 in experiment [6]. The Bliss excess in experiment [7] is -0.0247; in the experiment on PEO1 (Ovarian Carcinoma) it was -0.0367.
